In data set [1] the test system is vascular SMC membrane cholesterol. The data set is described as follows: Cholesterol and protein content of plasma membrane fraction from lovastatin-treated vascular SMCs. Format: cell-based, rat. Conditions: cells pretreated with lovastatin 72 h; Amplex Red cholesterol assay. On the procedure:
(§1) Vascular SMCs were plated at a density of 10^4 cells/well in a 96-well plate, or at a density of 10^6 cells/75 cm^2 cell culture flask (Nunc, Denmark) in 20 ml culture medium, and grown to 80% confluence, after which the medium was removed and replaced with fresh, serum-free medium with or without […] lovastatin.
A crude plasma membrane preparation was prepared from vascular SMCs by differential centrifugation (Hubbard et al., 1983). Cells were scraped off 10×75 cm^2 flasks using a cell scraper, and centrifuged in DMEM at 3,000 rpm in a Beckman Coulter Allegra 21R centrifuge at 4° C. for 3 min. The pellet was then washed with phosphate-buffered saline (PBS), added to 10 ml of STM buffer (0.25 M sucrose/5 mM Tris-HCl, pH 7.4/1.0 mM MgCl2), and homogenized on ice using 10 up and down strokes in a 40 ml Dounce-type glass homogenizer with a loose-fitting pestle. The homogenate was centrifuged at 1,100 rpm for 5 min. The supernatant fraction was saved and the pellet rehomogenized in 5 ml of STM buffer. […] Total membrane cholesterol was determined using the Amplex Red cholesterol assay kit (Molecular Probes, Eugene, Oreg., USA). The protein content of the membrane preparations was determined using the bicinchoninic acid (BCA) assay using bovine serum albumin as standard. […]

The test system of data set [2] is vascular SMCs. The data set is described as follows: Effect of lovastatin pretreatment on Aβ toxicity in vascular SMCs (MTS assay). The conditions noted are these: lovastatin pretreatment 72 h.
Data set [3] has as its system vascular SMC membranes (plasma membrane-enriched fraction). The data set is described as follows: Biosensor (surface plasmon resonance, BIAcore L1 chip) binding of Aβ to vascular SMC membranes. The conditions noted are these: for KA1 (equilibrium association constant for high affinity binding component) / KA2 (equilibrium association constant of low-affinity binding component): competing reaction model; for binding to plasma membrane-enriched fraction from vascular smooth muscle cells: FIG. 6. On the set-up: species or system rat; KA1 (equilibrium association constant for high affinity binding component) / KA2 (equilibrium association constant of low-affinity binding component): unit not given here. On the procedure: as §1
A crude plasma membrane preparation was prepared from vascular SMCs by differential centrifugation (Hubbard et al., 1983). Cells were scraped off 10×75 cm^2 flasks using a cell scraper, and centrifuged in DMEM at 3,000 rpm in a Beckman Coulter Allegra 21R centrifuge at 4° C. for 3 min. The pellet was then washed with phosphate-buffered saline (PBS), added to 10 ml of STM buffer (0.25 M sucrose/5 mM Tris-HCl, pH 7.4/1.0 mM MgCl2), and homogenized on ice using 10 up and down strokes in a 40 ml Dounce-type glass homogenizer with a loose-fitting pestle. The homogenate was centrifuged at 1,100 rpm for 5 min. The supernatant fraction was saved and the pellet rehomogenized in 5 ml of STM buffer. The suspension was again centrifuged, and the first and second supernatant fractions combined, then centrifuged at 40,000 rpm for 2 h (Beckman L8-M Ultracentrifuge, 70 Ti rotor, no brake) and the resulting crude plasma membrane fraction resuspended in 1.0 ml of 0.02 M sodium phosphate buffer, pH 7.4. Total membrane cholesterol was determined using the Amplex Red cholesterol assay kit (Molecular Probes, Eugene, Oreg., USA). The protein content of the membrane preparations was determined using the bicinchoninic acid (BCA) assay using bovine serum albumin as standard.
(§2) Binding experiments were carried out with a BIAcore X analytical system (Biacore, Uppsala, Sweden) using an L1 sensor chip (Biacore), as supplied by the manufacturer. It will be appreciated that other types of biosensor may also be used, preferably provided that the chip surface is such that the bound lipid material is able to retain a bilayer or monolayer structure. The running buffer used for all experiments was 0.02 M sodium phosphate buffer, pH 6.8 (phosphate buffer). The washing solution was 40 mM N-octyl β-D-glucopyranoside. The regeneration solution was 10 mM sodium hydroxide. All solutions were freshly prepared, degassed and filtered through a […] filter. The operating temperature was 25° C.
(§3) The alkyl surface of the L1 chip was cleaned by an injection of 25 μl of non-ionic 40 mM octyl glucoside at a flow rate of 5 μl/min. SUV (100 μl) or vascular SMC membranes (100 μl containing 0.33 mg protein) were then immediately applied to the chip surface at a low rate of 5 μl/min. To remove any multilamellar structures from the synthetic lipid surface, 30 μL of 10 mM sodium hydroxide was injected at a flow rate of […], resulting in a stable baseline corresponding to the successful formation of an immobilized layer of SUVs.
(§4) Peptide solutions were prepared at concentrations ranging from 0.5 to 10 μM. The solutions were injected over the lipid surface at a flow rate of 5 μl/min for 20 min. The peptide solution was then replaced by phosphate buffer and the peptide-membrane complex allowed to dissociate. The removal of the bound peptide and regeneration of the L1 chip surface, without removal of the synthetic lipid or vascular SMC membrane layer, was achieved by an injection of sodium hydroxide (30 μl, 10 mM) at a flow rate of 50 μl/min.

Data set [4] relates to vascular SMCs. The experiment in a line: MTS assay of cytotoxicity of Aβ peptides against vascular smooth muscle cells. The format is cell-based, rat. Conditions: 24 h, FIG. 1; for toxicity against vascular SMCs (MTS assay): peptide 10 μM; for toxicity against vascular SMCs after aging the peptide (MTS assay): peptide aged 5 days, 10 μM. As for the experimental part:
(§5) Aβ 1-42, Aβ 1-40, Aβ 1-28, Aβ 17-42 and Aβ 29-42 were dissolved in dimethyl sulfoxide (DMSO) at a concentration of 2 mM. The peptide solutions were then sonicated (42 kHz) for 5 minutes, and centrifuged at 5,000 rpm for 1 minute at room temperature using a Hermle Z160M bench microfuge. Solubilised peptides were immediately snap-frozen and mixed on a vortex mixer for 15 seconds. The peptides were then diluted into DMEM for cell culture experiments, or in 0.02 M sodium phosphate buffer, pH 6.8 for biosensor experiments, to give a final concentration of 10 μM.
as §1
The F3-(4,5-dimethylthiazol-2-yl)-5-(3-carboxymethoxyphenyl)-2(4-sulfophenyl)-2H-tetrazolium (MTS) reagent solution was added to the culture medium at a concentration of 10% (by volume).
To measure Aβ toxicity against vascular SMCs, cultures of cells were treated with Aβ peptides and analogues (10 μM) and the amount of toxicity determined using the MTS assay (Cory et al., 1991). […] Aging the peptides by incubation for 5 days caused a significant increase in toxicity. Previous studies (e.g., Pike et al., 1991) have shown that the aggregation of the Aβ into fibrils may be important for the generation of toxic species. The present results support this conclusion. […] In general, the amount of Aβ toxicity approximately correlated with the proportion of fibrillar species.

Data set [5] in a line: Congo Red assay of amyloid fibrils. Conditions: peptide aged 5 days, 10 μM; FIG. 2. The format is physicochemical. As for the experimental part: as §5
The concentration of amyloid fibrils was measured using the assay of Klunk et al. (1999). Aβ peptides were mixed with Congo red (CR) in 0.02 M sodium phosphate buffer, pH 6.8. The final concentration of peptide and CR was 10 μM. Solutions of CR alone were also prepared in 0.02 M sodium phosphate buffer, pH 6.8. The mixture was vortexed briefly and then incubated at room temperature for 15 min. The absorbances at 403 and 541 nm were measured using a BioRad SmartSpec 3000 spectrophotometer. Background absorbance values of buffer alone were subtracted from the values obtained from each sample. The concentration of Aβ fibrils in each preparation was then determined using the formula
All preparations were prepared in triplicate, and the assay was conducted independently three times, with similar results being obtained in each experiment.

Data set [6] deals with synthetic lipid mixtures (cholesterol: phospholipid SUV). The data set is described as follows: Biosensor (surface plasmon resonance, BIAcore L1 chip) binding of Aβ to synthetic lipid mixtures. On the set-up: KA1 (equilibrium association constant for high affinity binding component) / KA2 (equilibrium association constant of low-affinity binding component): unit not given here. The conditions noted are these: for KA1 (equilibrium association constant for high affinity binding component) / KA2 (equilibrium association constant of low-affinity binding component): competing reaction model; for extent of binding to the synthetic lipid mixture: 10 μM, cholesterol: phospholipid 60:40, compared with Aβ 1-28, FIG. 4. On the procedure:
Small 100 nm unilamellar vesicles (SUV), containing DMPC, DMPG, DMPS and DMPE, and cholesterol, were prepared in 0.02 M phosphate buffer (pH 6.8) by sonication and extraction. Briefly, 1.5 mg of total lipid was dissolved in 1.5 ml of CHCl3: MeOH (3:1, v/v). Aliquots (408 μl) were removed and evaporated under a stream of nitrogen, and the lipids further dried in vacuo overnight. The lipids were then resuspended in 600 μl of 0.02 M sodium phosphate buffer, pH 6.8. The resulting lipid dispersion was sonicated in a bath type sonicator until clear, and then extruded 17 times through 100 nm pore diameter polycarbonate filters using Liposofast apparatus (Avestin, Ottawa, Canada) to obtain 100 nm […]. The mixed lipid vesicles contained 80% (w/w), 60% (w/w), 40% (w/w), 30% (w/w) or 0% (w/w) cholesterol. The remaining lipid comprised a mixture of DMPC: DMPE: DMPS: DMPG in a ratio of 75:20:2.5:2.5 (by weight).
as §2, §3, §4
The amount of binding in response units (RU) was fitted by a simple one-to-one Langmuir reaction model (Morton et al., 1995):
or a competing reaction model (Karlsson and Falt, 1997):
using BIAevaluation 3.0 software (Biacore). The data obtained from five different binding experiments performed at five different concentrations of peptide were fitted globally to obtain the equilibrium association constant (KA). The accuracy of each fit was assessed by calculating a X^2 value for the data (Karlsson and Failt, 1997). A lower X^2 value was taken as an indication of a better fit of the data. […] Scatchard plots were generated using BIAevaluation 3.0 software (Biacore).
As previous studies have shown that Aβ can interact directly with lipid membranes, we examined the possibility that the toxic effects of Aβ were due to a direct interaction with the vascular SMC membrane. To study the binding of Aβ to lipids, biosensor technology was employed.

Setting [7] is: membranes from lovastatin-treated vascular SMCs (72 h).
[8] abbreviates: membranes from untreated vascular SMCs.

Entries after “also recorded” stand apart in the source; their conditions may differ.

For the molecule `CC[C@H](C)C(=O)O[C@H]1C[C@@H](C)C=C2C=C[C@H](C)[C@H](CC[C@@H]3C[C@@H](O)CC(=O)O3)[C@H]21` [lovastatin, Lovastatin], the “cholesterol content of the membrane fraction relative to untreated cells” value in data set [1] is “approximately 55%”. Moreover, in data set [2] (no Aβ), the “effect of lovastatin alone on the ability of vascular SMCs to reduce MTS” value is recorded as “little effect”. Also, the “reduction of the Aβ1-40 and Aβ1-42-induced decrease in MTS reduction in lovastatin-treated cells versus controls” value in data set [2] (then unaged Aβ 10 μM 24 h, FIG. 7) was 25-40%. Moreover, the “Aβ1-40 and Aβ1-42 binding to plasma membrane fraction of lovastatin-treated cells, relative to that without lovastatin pretreatment” value in data set [3] (cells pretreated with lovastatin 72 h, unaged Aβ 10 μM, RU20) is recorded as “approximately 25%”.
For the molecule “Aβ1-28: N-terminal Aβ fragment, residues 1-28”, in data set [4], the “toxicity against vascular SMCs (MTS assay)” value is “less toxic” and the “toxicity against vascular SMCs after aging the peptide (MTS assay)” value was “still toxic; also recorded: significantly less toxic”. Also, the “fibrillar species (Congo red binding assay)” value in data set [5] was “failed to form fibrils; also recorded: formed fewer fibrillar species”.
Consider “Aβ1-40: β-amyloid protein peptide, residues 1-40, made by manual solid-phase Boc synthesis”, for which the “KA1 (equilibrium association constant for high affinity binding component)” value is recorded as 4.1 × 10^4 in data set [3] (setting [7]); 8.3 × 10^5 in data set [3] (setting [8]); 1.1 × 10^5 in data set [6] (Cholesterol: PL ratio 30 : 70); 4.0 × 10^7 in data set [6] (Cholesterol: PL ratio 60 : 40); 4.8 × 10^7 in data set [6] (Cholesterol: PL ratio 80 : 20). The “KA2 (equilibrium association constant of low-affinity binding component)” value in data set [3] (setting [7]) is 3.6 × 10^4; in data set [3] (setting [8]) it was 5.9 × 10^5; in data set [6] (Cholesterol: PL ratio 30 : 70) it was 5.2 × 10^4; in data set [6] (Cholesterol: PL ratio 60 : 40) it was 1.3 × 10^6; in data set [6] (Cholesterol: PL ratio 80 : 20), 1.0 × 10^7. Also, the “total amount of binding to SMC membrane fraction relative to synthetic lipid mixture containing 60% cholesterol and 40% phospholipid” value in data set [3] (peptide 10 μM) is “approximately 10%”. In addition, in data set [3] (peptide 10 μM), the “binding to plasma membrane-enriched fraction from vascular smooth muscle cells” value is on record as “bound to the membrane fraction”. Moreover, the “toxicity against vascular SMCs (MTS assay)” value in data set [4] is given as “significant toxicity”.
For the molecule “Aβ1-42: β-amyloid protein peptide, residues 1-42, made by manual solid-phase Boc synthesis”, the “KA1 (equilibrium association constant for high affinity binding component)” value in data set [3] (setting [7]) is listed as 9.3 × 10^4; in data set [3] (setting [8]), 1.8 × 10^6; in data set [6] (Cholesterol: PL ratio 30 : 70), 1.8 × 10^5; in data set [6] (Cholesterol: PL ratio 80 : 20), 2.7 × 10^8. Besides, the “KA2 (equilibrium association constant of low-affinity binding component)” value in data set [3] (setting [7]) is 5.3 × 10^4; in data set [3] (setting [8]), 9.6 × 10^5; in data set [6] (Cholesterol: PL ratio 30 : 70) it was 6.9 × 10^4; in data set [6] (Cholesterol: PL ratio 60 : 40), 4.8 × 10^7; in data set [6] (Cholesterol: PL ratio 80 : 20), 6.9 × 10^7. The “binding to plasma membrane-enriched fraction from vascular smooth muscle cells” value in data set [3] (peptide 10 μM) is on record as “bound to the membrane fraction”. For the same molecule, the “toxicity against vascular SMCs (MTS assay)” value in data set [4] is “significant toxicity”. Further, the “toxicity against vascular SMCs after aging the peptide (MTS assay)” value in data set [4] is “significant increase in cytotoxicity”.
On to “Aβ17-42: C-terminal Aβ fragment, residues 17-42 (LVFFAEDVGSNKGAIIGLMVGGVVIA; Amyloid-beta protein 42; UniProt P05067 688-713, looked up, fragment)”, for which the “toxicity against vascular SMCs (MTS assay)” value in data set [4] is given as “significant toxicity”. Also, the “extent of binding to the synthetic lipid mixture” value in data set [6] was “bound more strongly”.
Consider “Aβ29-42: C-terminal Aβ fragment, residues 29-42 (GAIIGLMVGGVVIA; Amyloid-beta protein 42; UniProt P05067 700-713, looked up, fragment)”, for which, in data set [4], the “toxicity against vascular SMCs (MTS assay)” value was “significant toxicity”. Moreover, in data set [6], the “extent of binding to the synthetic lipid mixture” value is listed as “bound more strongly”.

The values are drawn from patent US20030235872A1, “Assay method” (priority 2002, published 2003).
